Source: patent publication EP1534672B1, “RETINOL DERIVATIVES, THEIR USE IN THE TREATMENT OF CANCER AND FOR POTENTIATING THE EFFICACY OF OTHER CYTOTOXIC AGENTS” (priority 2002, dated 2004)
Read-outs that look alike come from different tables or passages of the source. Marks after values point to notes of the source that are not given here.

Tests used:
[1] = tested on: Human Breast Adenocarcinoma Cell Line MDA-MB-231; assay: Drug cytotoxicity testing (viable cell count, trypan blue exclusion, cell growth inhibition); format: cell-based; settings: for cell growth inhibition reached on increase of the concentration, in (B): dilution in normal saline (B)
Description: (§1) MDA-MB-231 cells were propagated in MEM culture medium with 2 mM L-glutamine, 10% heat-inactivated fetal bovine serum (FBS) and antibiotics. DU 145 cells were cultured in MEM culture medium containing 2 mM L-glutamine, 1 mM sodium pyruvate, 10% FBS and antibiotics. SKOV-3 cells were cultured in McCoy's 5A culture medium, supplemented with 1,5 mM L-glutamine, 10% FBS and antibiotics. A549 cells were cultured in Ham's F-12 culture medium with 1 mM L-glutamine, 10% FBS and antibiotics. All media and supplements were purchased from Sigma-Aldrich (St.Louis, MO, USA). Cell propagation of all lines was carried out in Falcon™ 25 cm^2 cultivation flasks (Becton Dickinson Labware).
(§2) Drug cytotoxicity testing was carried out with using Falcon™ 96-well cultivation plates for adherent cells (Becton Dickinson Labware). These plates were seeded by cells either at 12 × 10^3 MDA-MB-231 cells/well, or at 12 × 10^3 DU 145 cells/well, or at 14 × 10^3 SKOV-3 cells/well, or at 10 × 10^3 A549 cells/well in a volume of 200 µL/well.
(§3) The cell cultures in cultivation plates were allowed to adhere for 24 hour of incubation. On day 1 after cell seeding, 2 µL solutions of the drugs to be tested in medium with 5% FBS was added to the cultures. In the control cultures, 2 µL of medium with 5% FBS was added as solvent control. The cells were incubated for 2 consecutive days. At the end of the incubation period adherent cells were detached by trypsinization and the number of viable cells was counted using trypan blue exclusion test and a hemocytometer. All data were derived from an average of three determinations each in six replicates. The results were expressed as mean cell number ± SE and the differences between control and test series evaluated by means of Student's t-test. The drug cytotoxicity was evaluated based on the extent of cell growth inhibition. The cell growth inhibition of the tested drugs was calculated as follows: Cell growth inhibition,% = (Control-TestSeries)/(Control) × 100 [formula]
In the case of comparative evaluation of cytotoxicity of the inventive compounds themselves and the formulation related to consecutive dilutions of their initial solutions before adding to the cultures, 2 µL solutions of the drugs to be tested in medium with 5% FBS, in normal saline and in saline with 2,3 mM CaCl2 were added to the cultures. In control cultures, 2 µL of medium with 5% FBS, normal saline and saline with 2,3 mM CaCl2 were added as solvent controls (negative controls). […] Therefore an average of negative controls was calculated. […] Therefore an average of positive controls was calculated (for each antibiotic).

[2] = tested on: Human Prostate Carcinoma Cell Line DU 145; assay: as above; format: cell-based; settings: alone or in formulation at molar ratio 1:6
Description: as §1, §2, §3

[3] = rat, in vivo, ip; for mortality: 100 mg/kg
Description: A single dose i.p. toxicity study in rats was carried out. […] The minimal lethal dose is thus above 100 mg/kg body weight for these compounds.

[4] = cytotoxic drug 10^-8 mol/L, working solutions in medium with 5% FBS
[5] = Homo sapiens, MDA-MB-231, compound alone 10^-7 mol/L, in A (saline with […] CaCl2), read-out: cell growth inhibition
[6] = Homo sapiens, MDA-MB-231, compound alone 10^-7 mol/L, in B (normal saline), read-out: cell growth inhibition
[7] = Homo sapiens, MDA-MB-231, compound alone 10^-7 mol/L, read-out: Cell growth inhibition in A compared to that in B was increased by
[8] = Homo sapiens, MDA-MB-231, compound alone 10^-8 mol/L, in A (saline with […] CaCl2), read-out: cell growth inhibition
[9] = Homo sapiens, MDA-MB-231, compound alone 10^-8 mol/L, in B (normal saline), read-out: cell growth inhibition
[10] = Homo sapiens, MDA-MB-231, compound alone 10^-8 mol/L, read-out: Cell growth inhibition in A compared to that in B was increased by
[11] = Homo sapiens, MDA-MB-231, compound alone 10^-9 mol/L, in A (saline with […] CaCl2), read-out: cell growth inhibition
[12] = Homo sapiens, MDA-MB-231, compound alone 10^-9 mol/L, in B (normal saline), read-out: cell growth inhibition
[13] = Homo sapiens, MDA-MB-231, compound alone 10^-9 mol/L, read-out: Cell growth inhibition in A compared to that in B was increased by
[14] = compound alone 10^-7 mol/L, in B (normal saline)
[15] = compound alone 10^-8 mol/L, in B (normal saline)
[16] = compound alone 10^-9 mol/L, in B (normal saline)
[17] = sodium salt, range 10^-9 to 10^-7 M
[18] = Homo sapiens, MDA-MB-231, 48 h, compound alone, final concentration 10^-7 mol/L, working solutions in MEM with 5% FBS, two days, read-out: cell growth inhibition
[19] = Homo sapiens, MDA-MB-231, 48 h, compound alone, final concentration 10^-8 mol/L, working solutions in MEM with 5% FBS, two days, read-out: cell growth inhibition
[20] = Homo sapiens, MDA-MB-231, 48 h, compound alone, final concentration 10^-9 mol/L, working solutions in MEM with 5% FBS, two days, read-out: cell growth inhibition
[21] = compound alone, final concentration 10^-7 mol/L, working solutions in MEM with 5% FBS, two days
[22] = compound alone, final concentration 10^-8 mol/L, working solutions in MEM with 5% FBS, two days
[23] = compound alone, final concentration 10^-9 mol/L, working solutions in MEM with 5% FBS, two days

O=C1c2c(O)ccc(O)c2C(=O)c2c(NCCNCCO)ccc(NCCNCCO)c21 [Mitoxantrone, mitoxantrone]
IC50 ([1]; Homo sapiens, MDA-MB-231, as concentration of cytotoxic drug, alone or in formulation at molar ratio 1:6, medium with 5% FBS, calculated from three concentrations, read-out: IC50 mol/L (a)): 0.005 µM | inhibition at 0.1 µM ([1]; Homo sapiens, MDA-MB-231, cytotoxic drug 10^-7 mol/L (100 nM), alone or in formulation at molar ratio 1:6, working solutions in medium with 5% FBS, read-out: Cell Growth Inhibition, %): 58.8% | inhibition at 0.01 µM ([1]; Homo sapiens, MDA-MB-231, cytotoxic drug 10^-8 mol/L, alone or in formulation at molar ratio 1:6, working solutions in medium with 5% FBS, read-out: Cell Growth Inhibition, %): 52.6% | inhibition at 0.001 µM ([1]; Homo sapiens, MDA-MB-231, cytotoxic drug 10^-9 mol/L, alone or in formulation at molar ratio 1:6, working solutions in medium with 5% FBS, read-out: Cell Growth Inhibition, %): 43.6% | Tumor Cell Number, × 10^3 ([1]; cytotoxic drug 10^-7 mol/L (100 nM), alone or in formulation at molar ratio 1:6, working solutions in medium with 5% FBS): 22.5 ± 1.63 × 10^3 | Cell Growth Inhibition, % ([1]; cytotoxic drug 10^-7 mol/L (100 nM), alone or in formulation at molar ratio 1:6, working solutions in medium with 5% FBS, 0.1 µM): 61.1* % | Tumor Cell Number, × 10^3 ([1]; cytotoxic drug 10^-7 mol/L (100 nM), alone or in formulation at molar ratio 1:6, working solutions in medium with 5% FBS, listed as mitoxantrone): 22.9 ± 1.49 × 10^3 | Tumor Cell Number, × 10^3 ([1]; cytotoxic drug 10^-8 mol/L, alone or in formulation at molar ratio 1:6, working solutions in medium with 5% FBS): 27.4 ± 1.90 × 10^3 | Tumor Cell Number, × 10^3 ([1]; cytotoxic drug 10^-9 mol/L, alone or in formulation at molar ratio 1:6, working solutions in medium with 5% FBS): 32.6 ± 1.99 × 10^3 | inhibition at 0.1 µM ([2]; Homo sapiens, DU-145, cytotoxic drug 10^-7 mol/L (100 nM), working solutions in medium with 5% FBS): 60.2% | inhibition at 0.01 µM ([2]; Homo sapiens, DU-145, cytotoxic drug 10^-8 mol/L, working solutions in medium with 5% FBS): 39.1% | inhibition at 0.001 µM ([2]; Homo sapiens, DU-145, cytotoxic drug 10^-9 mol/L, working solutions in medium with 5% FBS): 19.1% | IC50 ([2]; Homo sapiens, DU-145, as concentration of cytotoxic drug, medium with 5% FBS, calculated from three concentrations, read-out: IC50 mol/L (a)): 0.032 µM | Tumor Cell Number, × 10^3 ([2]; cytotoxic drug 10^-7 mol/L (100 nM), working solutions in medium with 5% FBS): 23.1 ± 1.34 × 10^3 | Cell Growth Inhibition, % ([2]; cytotoxic drug 10^-7 mol/L (100 nM), working solutions in medium with 5% FBS, 0.1 µM): 59.8* % | Tumor Cell Number, × 10^3 ([2]; cytotoxic drug 10^-7 mol/L (100 nM), working solutions in medium with 5% FBS, listed as mitoxantrone): 19.2 ± 1.16 × 10^3 | Cell Growth Inhibition, % [2, 4]: 39.1 * % | Tumor Cell Number, × 10^3 [2, 4]: 35.0 ± 1.70 × 10^3 | Tumor Cell Number, × 10^3 ([2]; cytotoxic drug 10^-9 mol/L, working solutions in medium with 5% FBS): 46.5 ± 2.32 × 10^3

CC1=C(/C=C/C(C)=C/C=C/C(C)=C/C(=O)N[C@@H](CS(=O)(=O)O)C(=O)O)C(C)(C)CCC1 [compound I-1, N-(all-trans-Retinoyl)-L-cysteic acid]
inhibition at 0.1 µM [1, 5]: 41.5% | inhibition at 0.1 µM [1, 6]: 31.3% | inhibition at 0.1 µM [1, 7]: 14.8% | inhibition at 0.01 µM [1, 8]: 40.2% | inhibition at 0.01 µM [1, 9]: 29.7% | inhibition at 0.01 µM [1, 10]: 15% | inhibition at 0.001 µM [1, 11]: 36.9% | inhibition at 0.001 µM [1, 12]: 24.8% | inhibition at 0.001 µM [1, 13]: 16.1% | number of viable cells [1, 14]: 39.1 ± 1.41 × 10^3 | number of viable cells [1, 15]: 40.0 ± 1.35 × 10^3 | number of viable cells [1, 16]: 42.8 ± 1.56 × 10^3 | cell growth inhibition reached on increase of the concentration, in (B) [1, 17]: ~31% | minimal lethal dose [3]: above 100 mg/kg body weight

COC(=O)[C@H](CS(=O)(=O)O)NC(=O)/C=C(C)/C=C/C=C(C)/C=C/C1=C(C)CCCC1(C)C [compound I-1a, N-(all-trans-retinoyl)-L-cysteic acid methyl ester]
inhibition at 0.1 µM [1, 18]: 47.9% | inhibition at 0.01 µM [1, 19]: 45.6% | inhibition at 0.001 µM [1, 20]: 40% | number of viable cells [1, 21]: 29.8 ± 2.44 × 10^3 | number of viable cells [1, 22]: 31.1 ± 1.90 × 10^3 | number of viable cells [1, 23]: 34.3 ± 2.27 × 10^3 | minimal lethal dose [3]: above 100 mg/kg body weight | mortality [3]: did not produce mortality

CC1=C(/C=C/C(C)=C/C=C/C(C)=C/C(=O)N[C@@H](CS(=O)(=O)O)C(N)=O)C(C)(C)CCC1 [compound I-1f, N-(all-trans-retinoyl)-L-cysteic acid amide]
inhibition at 0.1 µM [1, 18]: 52.5% | inhibition at 0.01 µM [1, 19]: 48.6% | inhibition at 0.001 µM [1, 20]: 44.8% | inhibition at 0.1 µM [1, 5]: 53.3% | inhibition at 0.1 µM [1, 6]: 44.9% | inhibition at 0.1 µM [1, 7]: 15.2% | inhibition at 0.01 µM [1, 8]: 46.3% | inhibition at 0.01 µM [1, 9]: 36.1% | inhibition at 0.01 µM [1, 10]: 16.1% | inhibition at 0.001 µM [1, 11]: 38.6% | inhibition at 0.001 µM [1, 12]: 25.8% | inhibition at 0.001 µM [1, 13]: 17.1% | number of viable cells [1, 14]: 31.6 ± 0.89 × 10^3 | number of viable cells [1, 15]: 36.7 ± 0.75 × 10^3 | number of viable cells [1, 16]: 42.6 ± 0.80 × 10^3 | number of viable cells [1, 21]: 25.3 ± 1.11 × 10^3 | number of viable cells [1, 22]: 27.4 ± 1.42 × 10^3 | number of viable cells [1, 23]: 29.4 ± 2.15 × 10^3 | cell growth inhibition in (A) compared to compound in B [1, 17]: ~15% | cell growth inhibition reached on increase of the concentration, in (B) [1, 17]: ~45% | minimal lethal dose [3]: above 100 mg/kg body weight | mortality [3]: did not produce mortality

CC1=C(/C=C/C(C)=C/C=C/C(C)=C\C(=O)N[C@@H](CS(=O)(=O)O)C(=O)OC(C)C)C(C)(C)CCC1 [compound II-1c, N-(13-cis-retinoyl)-L-cysteic acid isopropyl ester]
inhibition at 0.1 µM [1, 18]: 50.4% | inhibition at 0.01 µM [1, 19]: 47% | inhibition at 0.001 µM [1, 20]: 42.6% | number of viable cells [1, 23]: 33.6 ± 2.75 × 10^3

CCCOC(=O)[C@H](CS(=O)(=O)O)NC(=O)\C=C(C)/C=C/C=C(C)/C=C/C1=C(C)CCCC1(C)C [compound II-1d, N-(13-cis-retinoyl)-L-cysteic acid propyl ester]
inhibition at 0.1 µM [1, 18]: 53.7% | inhibition at 0.01 µM [1, 19]: 50.4% | inhibition at 0.001 µM [1, 20]: 44.9% | number of viable cells [1, 21]: 26.3 ± 1.86 × 10^3 | number of viable cells [1, 22]: 28.2 ± 1.29 × 10^3 | number of viable cells [1, 23]: 31.3 ± 2.68 × 10^3

CCCCOC(=O)[C@H](CS(=O)(=O)O)NC(=O)\C=C(C)/C=C/C=C(C)/C=C/C1=C(C)CCCC1(C)C [compound II-1e, N-(13-cis-retinoyl)-L-cysteic acid butyl ester]
inhibition at 0.01 µM [1, 19]: 50.7% | inhibition at 0.001 µM [1, 20]: 45.6% | number of viable cells [1, 23]: 30.9 ± 1.82 × 10^3

CC1=C(/C=C/C(C)=C/C=C/C(C)=C\C(=O)N[C@@H](CCS(=O)(=O)O)C(=O)O)C(C)(C)CCC1 [compound II-3, N-(13-cis-Retinoyl)-L-homocysteic acid]
minimal lethal dose [3]: above 100 mg/kg body weight
